For 21 compounds, IC50 results are on record in patent US20090036450A1, “PYRAZOLE COMPOUNDS AND USE THEREOF” (JAPAN TOBACCO, INC., priority 2006, published 2009).

The assay deals with T1, human liver glycogen phosphorylase (Homo sapiens, UniProt P06737).
T1 construct: made in house; host or cells: Sf9 insect cells (suspension of disrupted cells, diluted in BES buffer, not purified)
T1 sequence (P06737 1-847): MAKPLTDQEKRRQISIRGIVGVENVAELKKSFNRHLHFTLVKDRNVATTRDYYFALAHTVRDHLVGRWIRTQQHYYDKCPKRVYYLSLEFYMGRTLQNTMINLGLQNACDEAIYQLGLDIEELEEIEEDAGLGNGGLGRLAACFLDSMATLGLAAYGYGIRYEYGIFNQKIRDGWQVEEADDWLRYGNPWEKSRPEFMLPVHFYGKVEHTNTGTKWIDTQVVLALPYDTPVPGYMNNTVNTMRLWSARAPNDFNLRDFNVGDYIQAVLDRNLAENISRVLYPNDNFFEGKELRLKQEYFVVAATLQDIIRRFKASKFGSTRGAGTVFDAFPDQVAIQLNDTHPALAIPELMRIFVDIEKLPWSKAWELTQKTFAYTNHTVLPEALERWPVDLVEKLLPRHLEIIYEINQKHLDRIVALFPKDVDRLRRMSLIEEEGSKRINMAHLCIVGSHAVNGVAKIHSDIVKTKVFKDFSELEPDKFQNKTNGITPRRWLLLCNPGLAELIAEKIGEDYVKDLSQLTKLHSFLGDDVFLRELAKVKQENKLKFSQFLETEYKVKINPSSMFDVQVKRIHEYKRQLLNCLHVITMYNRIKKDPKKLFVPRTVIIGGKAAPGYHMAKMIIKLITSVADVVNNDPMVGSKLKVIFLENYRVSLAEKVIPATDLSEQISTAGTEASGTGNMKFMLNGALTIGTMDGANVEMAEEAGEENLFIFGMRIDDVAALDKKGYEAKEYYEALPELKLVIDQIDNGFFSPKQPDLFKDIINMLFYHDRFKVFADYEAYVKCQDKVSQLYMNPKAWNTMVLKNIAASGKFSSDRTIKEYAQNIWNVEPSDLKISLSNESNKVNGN
Put plainly: Liver glycogen phosphorylase activity, forward reaction system (NADPH detection at 340 nm). The class given is biochemical. The note with it: enzyme inhibitory activity against recombinant human liver glycogen phosphorylase (Sf9 cell lysate), room temperature, 75 minutes. In a few lines: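 Recombinant human liver glycogen phosphorylase from Sf9 lysate, run in forward direction with glycogen and phosphate substrate plus glucose, coupled via phosphoglucomutase/G6PDH to NADPH formation. BES buffer pH 6.8, room temperature, 75 min; A340 change minus blank gives activity. IC50 from percent inhibition vs DMSO control.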

The structures appear in SMILES notation. Where a name gives a salt, the structure may show the parent alone.

The term IC50 denotes the midpoint of a concentration-inhibition curve. In the case of `O=C(NCc1cnn(-c2ccc(F)cc2)c1C1CC1)c1cc(NC(=O)c2cc(F)c(F)cc2Cl)[nH]n1` [Example 1-67, 5-(2-chloro-4,5-difluoro-benzoylamino)-1H-pyrazole-3-carboxylic acid [5-cyclopropyl-1-(4-fluoro-phenyl)-1H-pyrazol-4-ylmethyl]-amide], the IC50 was < 100 nM.
`Cc1ncc(CNC(=O)c2cc(NC(=O)c3cc(F)c(F)cc3Cl)[nH]n2)c(C2CC2)n1` [Example 1-68, 5-(2-chloro-4,5-difluoro-benzoylamino)-1H-pyrazole-3-carboxylic acid (4-cyclopropyl-2-methyl-pyrimidin-5-ylmethyl)-amide]: the half-inhibitory concentration (IC50) is < 100 nM.
On to `COc1ccc(-c2nnsc2CNC(=O)c2cc(NC(=O)c3cc(F)c(F)cc3Cl)[nH]n2)cc1` [Example 1-69, 5-(2-chloro-4,5-difluoro-benzoylamino)-1H-pyrazole-3-carboxylic acid [4-(4-methoxy-phenyl)-[1,2,3]thiadiazol-5-ylmethyl]-amide], for which the 50% inhibitory concentration (IC50) is < 100 nM.
For the compound `Cc1noc(-c2noc(C)c2CNC(=O)c2cc(NC(=O)c3cc(F)c(F)cc3Cl)[nH]n2)n1` [Example 1-70, 5-(2-chloro-4,5-difluoro-benzoylamino)-1H-pyrazole-3-carboxylic acid [5-methyl-3-(3-methyl-[1,2,4]oxadiazol-5-yl)-isoxazol-4-ylmethyl]-amide], the IC50 was < 100 nM.
To `Cc1noc(-c2nc(C)oc2CNC(=O)c2cc(NC(=O)c3cc(F)c(F)cc3Cl)[nH]n2)n1` [Example 1-71, 5-(2-chloro-4,5-difluoro-benzoylamino)-1H-pyrazole-3-carboxylic acid [2-methyl-4-(3-methyl-[1,2,4]oxadiazol-5-yl)-oxazol-5-ylmethyl]-amide] belongs < 100 nM; to `O=C(NCc1nnc(-c2cccc(F)c2)o1)c1cc(NC(=O)c2cc(F)c(F)cc2Cl)[nH]n1` [Example 1-72, 5-(2-chloro-4,5-difluoro-benzoylamino)-1H-pyrazole-3-carboxylic acid [5-(3-fluoro-phenyl)-[1,3,4]oxadiazol-2-ylmethyl]-amide], < 100 nM.
`O=C(NCc1nnc(Cc2ccccc2)o1)c1cc(NC(=O)c2cc(F)c(F)cc2Cl)[nH]n1` [Example 1-74, 5-(2-chloro-4,5-difluoro-benzoylamino)-1H-pyrazole-3-carboxylic acid (5-benzyl-[1,3,4]oxadiazol-2-ylmethyl)-amide]: the IC50 was < 100 nM.
For the compound `Cn1cccc1-c1nnc(CNC(=O)c2cc(NC(=O)c3cc(F)c(F)cc3Cl)[nH]n2)o1` [Example 1-75, 5-(2-chloro-4,5-difluoro-benzoylamino)-1H-pyrazole-3-carboxylic acid [5-(1-methyl-1H-pyrrol-2-yl)-[1,3,4]oxadiazol-2-ylmethyl]-amide], the IC50 is < 100 nM.
Under `Cc1cc(-c2nnc(CNC(=O)c3cc(NC(=O)c4cc(F)c(F)cc4Cl)[nH]n3)o2)[nH]n1` [Example 1-76, 5-(2-chloro-4,5-difluoro-benzoylamino)-1H-pyrazole-3-carboxylic acid [5-(5-methyl-2H-pyrazol-3-yl)-[1,3,4]oxadiazol-2-ylmethyl]-amide] stands < 100 nM; under `O=C(NCc1nnc(-c2cc3ccccc3s2)o1)c1cc(NC(=O)c2cc(F)c(F)cc2Cl)[nH]n1` [Example 1-77, 5-(2-chloro-4,5-difluoro-benzoylamino)-1H-pyrazole-3-carboxylic acid (5-benzo[b]thiophen-2-yl-[1,3,4]oxadiazol-2-ylmethyl)-amide], 100 to 300 nM; under `Cc1nnsc1-c1nnc(CNC(=O)c2cc(NC(=O)c3cc(F)c(F)cc3Cl)[nH]n2)o1` [Example 1-78, 5-(2-chloro-4,5-difluoro-benzoylamino)-1H-pyrazole-3-carboxylic acid [5-(4-methyl-[1,2,3]thiadiazol-5-yl)-[1,3,4]oxadiazol-2-ylmethyl]-amide], < 100 nM.
On to `Cc1ncc(CNC(=O)c2cc(NC(=O)c3cc(F)c(F)cc3Cl)[nH]n2)c(-c2cccc(F)c2)n1` [Example 1-79, 5-(2-chloro-4,5-difluoro-benzoylamino)-1H-pyrazole-3-carboxylic acid [4-(3-fluoro-phenyl)-2-methyl-pyrimidin-5-ylmethyl]-amide], for which the IC50 was < 100 nM.
For the compound `Cc1nc(C2CC2)ncc1CNC(=O)c1cc(NC(=O)c2cc(F)c(F)cc2Cl)[nH]n1` [Example 1-80, 5-(2-chloro-4,5-difluoro-benzoylamino)-1H-pyrazole-3-carboxylic acid (2-cyclopropyl-4-methyl-pyrimidin-5-ylmethyl)-amide], the IC50 is < 100 nM.
Under `O=C(NCc1cncnc1C1CC1)c1cc(NC(=O)c2cc(F)c(F)cc2Cl)[nH]n1` [Example 1-81, 5-(2-chloro-4,5-difluoro-benzoylamino)-1H-pyrazole-3-carboxylic acid (4-cyclopropyl-pyrimidin-5-ylmethyl)-amide] stands < 100 nM.
Under `O=C(NCc1cnc(C2CC2)nc1C1CC1)c1cc(NC(=O)c2cc(F)c(F)cc2Cl)[nH]n1` [Example 1-82, 5-[2-chloro-4,5-difluoro-benzoylamino)-1H-pyrazole-3-carboxylic acid (2,4-dicyclopropyl-pyrimidin-5-ylmethyl)-amide hydrochloride] stands < 100 nM; under `Cc1ncc(CNC(=O)c2cc(NC(=O)c3cc(F)c(F)cc3Cl)[nH]n2)c(-c2oc(C)nc2C)n1` [Example 1-83, 5-(2-chloro-4,5-difluoro-benzoylamino)-1H-pyrazole-3-carboxylic acid [4-(2,4-dimethyl-oxazol-5-yl)-2-methyl-pyrimidin-5-ylmethyl]-amide], < 100 nM; under `Cc1cc(-c2nnsc2CNC(=O)c2cc(NC(=O)c3cc(F)c(F)cc3Cl)[nH]n2)c(C)o1` [Example 1-84, 5-(2-chloro-4,5-difluoro-benzoylamino)-1H-pyrazole-3-carboxylic acid [4-(2,5-dimethyl-furan-3-yl)-[1,2,3]thiadiazol-5-ylmethyl]-amide], < 100 nM.
In the case of `O=C(NCc1nnc(-c2cccc(Cl)c2)s1)c1cc(NC(=O)c2cc(F)c(F)cc2Cl)[nH]n1` [Example 1-85], the IC50 is < 100 nM.
As for `CCc1nc(Cc2nc(C)c(CNC(=O)c3cc(NC(=O)c4cc(F)c(F)cc4Cl)[nH]n3)o2)n[nH]1` [Example 1-86, 5-(2-chloro-4,5-difluoro-benzoylamino)-1H-pyrazole-3-carboxylic acid [2-(5-ethyl-1H-[1,2,4]thiazol-3-ylmethyl)-4-methyl-oxazol-5-ylmethyl]-amide hydrochloride], the IC50 was < 100 nM.
Regarding `O=C(NCc1n[nH]c(-c2ccc(Cl)cc2)n1)c1cc(NC(=O)c2cc(F)c(F)cc2Cl)[nH]n1` [Example 1-87, 5-(2-chloro-4,5-difluoro-benzoylamino)-1H-pyrazole-3-carboxylic acid [5-(4-chloro-phenyl)-1H-[1,2,4]triazol-3-ylmethyl]-amide], the IC50 is < 100 nM.
Under `COc1ccc(Cc2nc(CNC(=O)c3cc(NC(=O)c4cc(F)c(F)cc4Cl)[nH]n3)n[nH]2)cc1OC` [Example 1-88, 5-(2-chloro-4,5-difluoro-benzoylamino)-1H-pyrazole-3-carboxylic acid [5-(3,4-dimethoxy-benzyl)-1H-[1,2,4]triazol-3-ylmethyl]-amide] stands < 100 nM.
